In US20180370922A1, “ANTI-INFLAMMATORY 6-PHENOXYPYRIMIDINE DERIVATIVES, PROCESS FOR THEIR PREPARATION AND PHARMACEUTICAL COMPOSITION CONTAINING THEM” (priority 2017, published 2018):

Legend:
[1] = test system: LPS-induced NO production in RAW 264.7 macrophages; test: Measurement of nitrite (Griess test) as a measure of NO production; format: cell-based, murine; details: FIG. 2
Method: The concentration of nitrite accumulated in the culture medium was measured by the Griess test as a measure of nitric oxide (NO) production. L-NIL was used as the positive control.

[2] = test system: LPS-induced PEG2 production; test: Measurement of PEG2 production; format: cell-based; details: FIG. 3
[3] = test system: iNOS mRNA; test: iNOS mRNA expression level; format: cell-based; details: FIG. 5A
Method: Western blotting was conducted to identify the mechanism of the NO and PGE2 production inhibiting activity of the compound of the present invention. The inhibition of iNOS and COX-2 protein production and mRNA upregulation was tested.

[4] = test system: TNF-α; test: Cytokine production inhibiting activity, TNF-α; format: cell-based; details: at a concentration of 12 μM, FIG. 6
Method: (§1) The inhibitory activity for the proinflammatory cytokines TNF-α, IL-1β and IL-6 was tested for the compound of the present invention.

[5] = test system: IL-6; test: Cytokine production inhibiting activity, IL-6; format: cell-based; details: at a concentration of 12 μM, FIG. 6
Method: as §1

[6] = test system: RAW 264.7 macrophages
Method: RAW 264.7 macrophages were seeded onto a 24-well plate, cultured with a sample or an adequate positive control under various concentration conditions and then LPS (lipopolysaccharides) were activated for 24 hours. After adding a 20 μL MTT (5 mg/mL) solution to each well, the cells were cultured further for 4 hours. After removing the supernatant, 1 mL of formazan dissolved in dimethyl sulfoxide (DMSO) was added to each well. Then, absorbance was measured by ELISA at a wavelength of 540 nm.

COc1ccc(Oc2nc(Nc3ccc(N4CCOCC4)cc3)ncc2/N=C/c2cc(OC)cc(OC)c2)cc1 [Example 21, (E)-5-((3,5-dimethoxybenzylidene)amino)-4-(4-methoxyphenoxy)-N-(4-morpholinophenyl)pyrimidin-2-amine]
inhibition of LPS-induced NO production ([1]; RAW 264.7 macrophages, LPS 24 hours, Griess test): inhibit LPS-induced NO production in a dose-dependent manner | NO inhibitory activity as compared to the positive control L-NIL ([1]; relative to L-NIL): 2 times | inhibition of LPS-induced PEG2 production [2]: inhibit LPS-induced PEG2 production in a dose-dependent manner | inhibition of LPS-induced upregulation of iNOS mRNA [3]: inhibit LPS-induced upregulation of iNOS mRNA | inhibition of TNF-α production [4]: inhibit the production of TNF-α | inhibition of IL-6 production [5]: inhibit the production of TNF-α and IL-6 | cell viability (toxicity) [6]: little toxicity
